Results on 13 molecules are retold here after patent US8497254B2, “Oxadiazole derivatives as sphingosine 1-phosphate (S1P) receptor modulators” (Allergan, Inc., priority 2010, dated 2013).

T1 sequence (P21453 whole entry): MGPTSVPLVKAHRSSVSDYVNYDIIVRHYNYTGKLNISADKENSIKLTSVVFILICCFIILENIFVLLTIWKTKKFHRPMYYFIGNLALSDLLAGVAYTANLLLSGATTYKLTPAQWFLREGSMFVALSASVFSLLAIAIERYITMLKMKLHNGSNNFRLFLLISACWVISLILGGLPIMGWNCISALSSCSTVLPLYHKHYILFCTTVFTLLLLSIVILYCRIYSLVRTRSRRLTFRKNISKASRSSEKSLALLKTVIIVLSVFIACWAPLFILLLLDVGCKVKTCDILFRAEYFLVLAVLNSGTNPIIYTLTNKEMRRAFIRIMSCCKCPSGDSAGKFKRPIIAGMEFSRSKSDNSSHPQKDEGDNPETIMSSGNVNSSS

This assay has as its target T1, human S1P1 receptor (Homo sapiens, UniProt P21453).
T1 construct: expressed in transfected cells; membranes were used
As to the kind of experiment: GTP γ35S binding assay for S1P1 activity. It is filed as biochemical. Particulars: activity potency from GTP γ35S binding; membrane protein from cells stably expressing the S1P1 receptor; 30 min at 25° C. The method, then: Compounds were synthesized and tested for S1P1 activity using the GTP γ^35S binding assay. These compounds may be assessed for their ability to activate or block activation of the human S1P1 receptor in cells stably expressing the S1P1 receptor.
GTP γ^35S binding was measured in the medium containing (mM) HEPES 25, pH 7.4, MgCl2 10, NaCl 100, dithitothreitol 0.5, digitonin 0.003%, 0.2 nM GTP γ^35S, and 5 μg membrane protein in a volume of 150 μl. Test compounds were included in the concentration range from 0.08 to 5,000 nM unless indicated otherwise. Membranes were incubated with 100 μM 5′-adenylylimmidodiphosphate for 30 min, and subsequently with 10 μM GDP for 10 min on ice. Drug solutions and membrane were mixed, and then reactions were initiated by adding GTP γ^35S and continued for 30 min at 25° C. Reaction mixtures were filtered over Whatman GF/B filters under vacuum, and washed three times with 3 mL of ice-cold buffer (HEPES 25, pH7.4, MgCl2 10 and NaCl 100). Filters were dried and mixed with scintillant, and counted for ^35S activity using a β-counter. Agonist-induced GTP γ^35S binding was obtained by subtracting that in the absence of agonist. Binding data were analyzed using a non-linear regression method. In case of antagonist assay, the reaction mixture contained 10 nM S1P in the presence of test antagonist at concentrations ranging from 0.08 to 5000 nM.
A general note: GTPγS is a poorly hydrolysed GTP analogue; its binding reports G protein activation.
Turning to `Cc1ccc(CC(c2cccc(Cl)c2)c2nc(-c3ccc(C(=O)NCCC(=O)O)cc3)no2)cc1C` (stereo not shown) [Compound 9, 3-[(4-{5-[1-(3-chlorophenyl)-2-(3,4-dimethylphenyl)ethyl]-1,2,4-oxadiazol-3-yl}benzoyl)amino]propanoic acid], the EC50 was 0.911 µM.

`Cc1ccc(CC(c2cccc(C(F)(F)F)c2)c2nc(-c3ccc(CNCCC(=O)O)cc3)no2)cc1C` (stereo not shown) [Compound 12, 3-{[4-(5-{2-(3,4-dimethylphenyl)-1-[3-(trifluoromethyl)phenyl]ethyl}-1,2,4-oxadiazol-3-yl)benzyl]amino}propanoic acid] showed an EC50 of 0.336 µM. On to `Cc1ccc(CC(c2ccc(Cl)cc2)c2nc(-c3ccc(CCC(=O)O)cc3C)no2)cc1C` (stereo not shown) [Compound 7, 3-(4-{5-[1-(4-chlorophenyl)-2-(3,4-dimethylphenyl)ethyl]-1,2,4-oxadiazol-3-yl}-3-methylphenyl)propanoic acid], for which the EC50 amounted to 0.0893 µM. In the case of `Cc1cccc(CC(c2cccc(Cl)c2)c2nc(-c3ccc(CCC(=O)O)cc3C)no2)c1` (stereo not shown) [Compound 8, 3-(4-{5-[1-(3-chlorophenyl)-2-(3-methylphenyl)ethyl]-1,2,4-oxadiazol-3-yl}-3-methylphenyl)propanoic acid] it was 0.0171 µM.

The molecule `Cc1ccc(NC(c2cccc(Cl)c2)c2nc(-c3ccc(CNCCC(=O)O)cc3)no2)cc1C` (stereo not shown) [3-{[4-(5-{(3-chlorophenyl)[(3,4-dimethylphenyl)amino]methyl}-1,2,4-oxadiazol-3-yl)benzyl]amino}propanoic acid] registered an EC50 of 0.0015 µM. Consider `Cc1ccc(CC(c2cccc(Cl)c2)c2nc(-c3ccc(CCC(=O)O)cc3C)no2)cc1C` (stereo not shown) [Compound 6, 3-(4-{5-[1-(3-chlorophenyl)-2-(3,4-dimethylphenyl)ethyl]-1,2,4-oxadiazol-3-yl}-3-methylphenyl)propanoic acid], for which the EC50 is 1.06 µM. In the case of `Cc1ccc(CC(c2cc(F)cc(F)c2)c2nc(-c3ccc(CNCCCP(=O)(O)O)cc3)no2)cc1C` (stereo not shown) [Compound 11, {3-[(4-{5-[1-(3,5-difluorophenyl)-2-(3,4-dimethylphenyl)ethyl]-1,2,4-oxadiazol-3-yl}benzyl)amino]propyl}phosphonic acid] it was 0.00527 µM; in that of `Cc1cc(C)cc(C(Cc2ccc(C)c(C)c2)c2nc(-c3ccc(CNCCC(=O)O)cc3)no2)c1` (stereo not shown) [Compound 13, 3-[(4-{5-[2-(3,4-dimethylphenyl)-1-(3,5-dimethylphenyl)ethyl]-1,2,4-oxadiazol-3-yl}benzyl)amino]propanoic acid], 0.535 µM. Molecule `Cc1ccc(CC(c2cc(F)cc(F)c2)c2nc(-c3ccc(CNCCC(=O)O)cc3)no2)cc1C` (stereo not shown) [Compound 10, 3-[(4-{5-[1-(3,5-difluorophenyl)-2-(3,4-dimethylphenyl)ethyl]-1,2,4-oxadiazol-3-yl}benzyl)amino]propanoic acid] came in with an EC50 of 1.1 µM. On to `Cc1ccc(CC(c2cccc(Cl)c2)c2nc(-c3ccc(CNCCCP(=O)(O)O)cc3)no2)cc1C` (stereo not shown) [Compound 2, {3-[(4-{5-[1-(3-chlorophenyl)-2-(3,4-dimethylphenyl)ethyl]-1,2,4-oxadiazol-3-yl}benzyl)amino]propyl}phosphonic acid], for which the EC50 came out at 0.00377 µM.

Regarding `Cc1ccc(CC(c2cccc(F)c2)c2nc(-c3ccc(CNCCCP(=O)(O)O)cc3)no2)cc1C` (stereo not shown) [Compound 4, {3-[(4-{5-[2-(3,4-dimethylphenyl)-1-(3-fluorophenyl)ethyl]-1,2,4-oxadiazol-3-yl}benzyl)amino]propyl}phosphonic acid], the EC50 was 0.00404 µM. `Cc1ccc(CC(c2cccc(F)c2)c2nc(-c3ccc(CNCCC(=O)O)cc3)no2)cc1C` (stereo not shown) [Compound 3, 3-[(4-{5-[2-(3,4-dimethylphenyl)-1-(3-fluorophenyl)ethyl]-1,2,4-oxadiazol-3-yl}benzyl)amino]propanoic acid] displayed an EC50 of 0.598 µM. Against the preceding molecule, the EC50 is about 150-fold higher. `Cc1ccc(CC(c2cccc(Cl)c2)c2nc(-c3ccc(CNCCC(=O)O)cc3)no2)cc1C` (stereo not shown) [Compound 1, 3-[(4-{5-[1-(3-chlorophenyl)-2-(3,4-dimethylphenyl)ethyl]-1,2,4-oxadiazol-3-yl}benzyl)amino]propanoic acid]: a half-maximal response (EC50) required 0.312 µM. This EC50 is about 1.9-fold lower than that of the molecule before.

For orientation: EC50 means the concentration at which the effect is half-maximal. Read a low EC50 as higher potency in that assay.
